# Results published in patent publication US10525044B2, “Treatment for chemotherapy-induced peripheral neuropathy” (priority 2013, dated 2020).
# “Also recorded” adds a separate entry of the source.
# Key:
# [1] = test system: mixed cortical and striatal neurons; assay: LDH assay (cell membrane integrity) in neuronal cell culture; assay type: cell-based
# Experimental: Neuronal Cell Culture. Mixed cortical and striatal neurons fromembryonic day 17 male Sprague-Dawley rats (tissue obtained from NIH) were seeded into poly-D-lysine coated 96-well plates at density of 50,000 cells/well and initially cultured at 37° C., 5% CO2, in neurobasal medium (NB) with B27 supplement (Invitrogen) containing full strength of AOs to obtain highly enriched (95%) neurons. Since AOs, including vitamin E, vitamin E acetate, superoxide dismutase (SOD), catalase (CAT), and GSH, are additives to culture medium, reduction of AO concentration in culture medium provides an approach to determine the level of OS involvement in a neurotoxic process. In our study, the culture medium was replaced at a 50% ratio with NB plus B27 minus AOs twice at days 7 and 9 to set AO concentrations as 50% and 25%, respectively. At 16 days in vitro (d.i.v.), a fraction of the culture medium was harvested for lactate dehydrogenase (LDH) assay, and then AO concentration was reduced to 12.5% and cultured for a further 5 hours prior to ending the experiment.
# (§1) Cell Insults and Treatments. Determination of concentration for each anticancer drug in our experiments was based on its reported concentration in human cerebral spinal fluid (CSF) in chemotherapy, literature report of its neurotoxicity in culture, and our preliminary in vitro experimental data. At 13 d.i.v., the neuronal cell cultures were insulted with 100 μM of MTX (M9929, Sigma), 25 μM of 5-FU (F6627, Sigma), or 3.5 μM of CDDP (sc-200896, Santa Cruz) for 3 days in absence or presence of PAN 811.Cl.H2O. For ROS examination, the neurons were insulted with both 100 μM of MTX and 25 μM of 5-FU by 15 d.i.v. PAN-811.Cl.H2O was added to cultures to final concentrations of 1.25, 2.5, 5, and 10 μM at the same time as addition of the anticancer drugs. For cancer cell lines, the cells were insulted by the second day of cell seeding with the same concentration of MTX, 5-FU, or CDDP as used in neuronal culture in the absence or presence of 10 μM PAN-811.Cl.H2O for another 3 days.
# (§2) Quantitative Assays and Morphological Assessment. Cell membrane integrity and mitochondrial function of either neurons or cancer cells were measured with LDH and 3-(4,5-dimethylthiazol-2-yl)-5-(3-carboxymethoxyphenyl)-2-(4-sulfophenyl)-2H-tetrazolium [MTS] analyses, respectively. The latter has been used to quantify cell survival. For the LDH assay, a mixture of a 35 μL aliquot of culture supernatant and 17.5 μL of Mixed Substrate, Enzyme and Dye Solutions (Sigma) was incubated at room temperature (RT) for 30 minutes. For the MTS assay, 10 μL of MTS reagent (Promega) was added to a culture well containing neurons in 50 μL of medium. The preparations were incubated at 37° C. for 2 hours. The preparations for both assays were then spectrophotometrically measured at 490 nm using a 96-well plate reader (Mode 550, Bio-Rad). Neuronal cell death was morphologically determined based on the integrity of the cell soma and continuity of neuronal processes. The change in number of cancer cells was judged directly by cell density. Cells were photographed under an inverted phase contrast microscope (IX 70, Olympus) using 10× or 20× objective.
# (§3) Data Analysis. Data were generated from 4-6 replicate wells, expressed as mean±standard deviation (SD), and statistically evaluated at a significance level of 1% with one factor ANOVA or Student's t-test by using software VASSARSTATS (http://vassarstats.net/) followed by the Tukey HSD test. Figure symbols are as follows: #, P<0.05, and ##, P<0.01, compared with control; *, P<0.05, and **, P<0.01, compared with the insulted group; §§, P<0.01, compared with PAN-811 treated group by Student's t-test.
# [2] = test system: mouse liver cancer cell line BNLT3; assay: MTS assay in BNLT3 cancer cells; assay type: cell-based
# Experimental: (§4) Cancer Cell Culture. The mouse liver cancer cell line BNLT3 (gift of Dr. Jack Wands, Brown University) and the human lung cancer cell line H460 (ATCC) were seeded into 96-well plates at a density of 4,000 cells/well and cultured at 37° C., 5% CO2, in DMEM (11965, Gibco) supplemented with 10% fetal bovine serum, 20 mM HEPES, 1 mM sodium pyruvate, and […] gentamycin (all reagents came from Gibco).
# as §1, §2, §3
# [3] = test system: mouse liver cancer cell line BNLT3; assay: Cell density of BNLT3 cells (phase contrast); assay type: cell-based
# Experimental: as §4, §1, §2
# ribonucleotide reductase = biological target: T1, ribonucleotide reductase (Homo sapiens, UniProt P31350); details: cited from earlier work
# T1 sequence (P31350 1-389): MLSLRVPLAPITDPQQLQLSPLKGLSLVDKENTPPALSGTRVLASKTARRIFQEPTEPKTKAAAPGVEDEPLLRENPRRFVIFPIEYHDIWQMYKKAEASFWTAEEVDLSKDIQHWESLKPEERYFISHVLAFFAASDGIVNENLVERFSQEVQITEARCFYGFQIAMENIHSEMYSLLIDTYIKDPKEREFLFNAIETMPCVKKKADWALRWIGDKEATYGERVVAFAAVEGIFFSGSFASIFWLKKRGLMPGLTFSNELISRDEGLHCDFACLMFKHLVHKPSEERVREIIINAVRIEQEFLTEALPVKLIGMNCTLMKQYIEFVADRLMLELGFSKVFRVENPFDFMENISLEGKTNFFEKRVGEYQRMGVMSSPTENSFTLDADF
# [4] = test system: ischemic neurodegeneration; details: 0.45 μM; cited from earlier work
# [5] = test system: hypoxia-induced neuronal cell death; details: 1.2 μM; cited from earlier work
# cultured neuronal cells = details: cited from earlier work
# [6] = 500 μM diphenylpicrylhydrazyl, cell free; cited from earlier work
# [7] = 3.5 μM CDDP and 10 μM PAN-811, 3 days
# [8] = 25 μM 5-FU and 10 μM PAN-811, 3 days
# [9] = 100 μM MTX and 10 μM PAN-811, 3 days
compound,measurement,setting,value
"NC(=S)N/N=C/c1ncccc1N [PAN-811, 3-aminopyridine-2-carboxaldehyde thiosemicarbazone]",LDH release in CDDP-insulted cultures,"[1]; 5 μM PAN-811, 3.5 μM CDDP",fully blocked
same,LDH release in 5-FU-insulted cultures,"[1]; 5 μM PAN-811, 25 μM 5-FU",fully blocked
same,LDH release in MTX-insulted cultures,"[1]; 5 μM PAN-811, 100 μM MTX",fully blocked
same,MTX/5-FU-elicited LDH increase,"[1]; 10 μM PAN-811, 100 μM MTX and 25 μM 5-FU",fully inhibited
same,"suppression of MTX/5-FU-elicited LDH release, concentration dependence","[1]; PAN-811 1.25 to 10 μM, 100 μM MTX and 25 μM 5-FU",concentration-dependent suppression
same,"LDH increase caused by each anticancer drug, dose dependence","[1]; neurons, MTX 100 μM, 5-FU 25 μM or CDDP 3.5 μM",dose-dependently suppressed
same,"MTS reading, cotreatment vs PAN-811 alone",[2]; [7],did not introduce an extra reduction in MTS reading
same,"inhibition of the effect of MTX, 5-FU, or CDDP on BNLT3 cells",[2]; 10 μM PAN-811,did not show any inhibition
same,synergistic effect with each tested anticancer drug on BNLT3 cell growth,[2]; 10 μM PAN-811,neither did it demonstrate any synergistic effect
same,"MTS reading, cotreatment vs 5-FU alone",[2]; [8],caused a further reduction in MTS reading
same,"MTS reading, cotreatment vs MTX alone",[2]; [9],did not cause any further reduction in MTS reading
same,"cell density, cotreatment with CDDP",[3]; [7],significant reduction in the cell density
same,"cell number, cotreatment with 5-FU",[3]; [8],significantly decreased the cell number
same,"cell density, cotreatment with MTX",[3]; [9],cell density was also much lower than that in no-insult control
same,cell density / cancer cell number,"[3]; each agent alone, 3 days: MTX 100 μM, 5-FU 25 μM, CDDP 3.5 μM, PAN-811 10 μM",cell density was also much lower than that in no-insult control; also recorded: significant reduction in the cell density
same,ability to inhibit ribonucleotide reductase,ribonucleotide reductase,inhibit
same,ischemic neurodegeneration,[4],fully blocked
same,hypoxia-induced neuronal cell death,[5],completely halted
same,neuroprotection against glutamate insult,cultured neuronal cells; cells pretreated with 10 μM for 24 h,Nearly complete neuroprotection
same,glutamate-induced excitatory cytotoxicity,cultured neuronal cells,prevents
same,reduction of stable free radical diphenylpicrylhydrazyl,[6],70%
